Converted amounts (≈) assume the structure as drawn. Like-named read-outs stand apart in the source and are kept apart here.
Assays:
[1] = test system: S. aureus UC-76; test: MIC, microplate broth-dilution, S. aureus UC-76; details: Sensitive strain; BHI broth
[2] = test system: S. lutea UC-130; test: agar diffusion (dipped disc) assay, zone of inhibition, S. lutea UC-130; details: for zone of inhibition at 1000 µg/mL: Micrococcus luteus
[3] = test system: S. aureus UC 80; test: agar diffusion (dipped disc) assay, zone of inhibition, S. aureus UC 80; details: 1 mg./ml. methanolic solution, 12.7 mm paper disc, 16 hours; NZ = no zone
[4] = test system: S. aureus UC-570; test: MIC, microplate broth-dilution, S. aureus UC-570; details: Sensitive strain; BHI broth
[5] = test system: S. aureus UC-746; test: MIC, microplate broth-dilution, S. aureus UC-746; details: Resistant to tetracycline; BHI broth
[6] = solubility remark in the MIC test; details: in place of MIC values

With 9-O--3-Furoyl- [U-61,461] the “MIC S. aureus UC-76” value [1] was 0.50 µg/mL, the “Agar Diffusion S. lutea UC-130 (inhibition zone)” value ([2]; 1 mg./ml. methanolic solution, 12.7 mm paper disc, 16 hours, NZ = no zone) was 41 and the “Agar Diffusion S. aureus UC 80 (inhibition zone)” value [3] was 35. The “MIC S. aureus UC-570” value [4] was 0.25 µg/mL and the “MIC S. aureus UC-746” value [5] was 0.50 µg/mL.

In the case of `COC1CC2C=CC3C4OC2(C(C)=CC(C)C(C(C)O)OC1=O)C3C(O)C(C)C4OC(=O)c1ccccc1` (stereo not drawn) [9-O--benzoyl-, 9-O-benzoyl-nodusmicin], the “insoluble” value [6] is reported as “insoluble”.

Molecule `COC1CC2C=CC3C4OC2(C(C)=CC(C)C(C(C)OC(=O)c2ccccc2)OC1=O)C3C(O)C(C)C4O` (stereo not drawn) [18-O--benzoyl-, 18-O-benzoylnodusmicin] has a zone of inhibition at 1000 µg/mL ([2]; UC130, 16 h, read-out: Agar Diffusion S. lutea UC-130 (inhibition zone)) of 24 mm and a zone of inhibition at 1000 µg/mL ([2]; UC130, read-out: zone of inhibition, S. lutea) of 24 mm.

With `COC1CC2C=CC3C4OC2(C(C)=CC(C)C(C(C)O)OC1=O)C3C(O)C(C)C4OC(=O)c1ccc[nH]1` (stereo not drawn) [U-59,760, 9-O-pyrrole-2-carbonyl ester of nodusmicin, reference compound] the “MIC S. aureus UC-76” value [1] was 0.125 µg/mL (≈ 0.242 µM) and the “Agar Diffusion S. aureus UC 80 (inhibition zone)” value [3] was 38.

For `COC1CC2C=CC3C4OC2(C(C)=CC(C)C(C(C)OC(=O)c2ccc[nH]2)OC1=O)C3C(O)C(C)C4OC(=O)c1ccc[nH]1` (stereo not drawn) [U-60,908, 9, 18-O--Dipyrrole-2-carbonyl-], the “insoluble” value [6] was “insoluble”.

In the case of `COC1CC2C=CC3C4OC2(C(C)=CC(C)C(C(C)O)OC1=O)C3C(O)C(C)C4OC(=O)c1cc2ccccc2[nH]1` (stereo not drawn) [U-61,273, 9-O--Indole-2-carbonyl-], the “insoluble” value [6] is reported as “insoluble”.

— US4588817A, “Antibiotic nodusmicins” (priority 1984, dated 1986)
